Reference: US20090131431A1, “Pyrazolo[3,4-b]pyridine compounds, and their use as a PDE4 inhibitors” (priority 2005, published 2009)
Where a name gives a salt, the structure may show the parent alone.

Target: T1, PDE4B (human recombinant) (Homo sapiens, UniProt Q07343)
T1 construct: made in house
Assay: Inhibition of PDE4B activity: SPA and/or Fluorescence Polarisation (FP) assay
Assay type: biochemical
Details: one reading (n=1) or average of 2 or more readings, read-out: PDE4B pIC50 (±about 0.5) (converted)
Procedure: The ability of compounds to inhibit catalytic activity at PDE4B or 4D (human recombinant), PDE3 (from bovine aorta), PDE5 (human recombinant) or PDE6 (from bovine retina) can optionally be determined by Scintillation Proximity Assay (SPA) in a 96-well format.
The enzyme concentration is adjusted so that no more than 20% hydrolysis of the substrate defined below occurs in control wells without compound, during the incubation. For the PDE3, PDE4B and PDE4D assays, [5′,8-3H]Adenosine 3′,5′-cyclic phosphate (Amersham Pharmacia Biotech, code TRK.559; or Amersham Biosciences UK Ltd, Pollards Wood, Chalfont St Giles, Buckinghamshire HP8 4SP, UK) is added to give 0.05 uCi per well and about 10 nM final concentration. […] Plates containing assay mixture, suitably approx. 100 ul volume of assay mixture, are mixed on an orbital shaker for 5 minutes and incubated at ambient temperature for 1 hour. Phosphodiesterase SPA beads (Amersham Pharmacia Biotech, code RPNQ 0150) are added (about 1 mg per well) to terminate the assay. Plates are sealed and shaken and allowed to stand at ambient temperature for 35 minutes to 1 hour (suitably 35 minutes) to allow the beads to settle. […] Curves are analysed using ActivityBase and XLfit (ID Business Solutions Limited, 2 Ocean Court, Surrey Research Park, Guildford, Surrey GU2 7QB, United Kingdom). Results are expressed as pIC50 values.
The ability of compounds to inhibit catalytic activity at PDE4B (human recombinant) or PDE4D (human recombinant) can optionally be determined by IMAP Fluorescence Polarisation (FP) assay (IMAP Explorer kit, available from Molecular Devices Corporation, Sunnydale, Calif., USA; Molecular Devices code: R8062) in 384-well format.
The IMAP FP assay is able to measure PDE activity in an homogenous, non-radioactive assay format. The FP assay uses the ability of immobilised trivalent metal cations, coated onto nanoparticles (tiny beads), to bind the phosphate group of Fl-AMP that is produced on the hydrolysis of fluorescein-labelled (Fl) cyclic adenosine mono-phosphate (Fl-cAMP) to the non-cyclic Fl-AMP form. […] Binding of Fl-AMP product to the beads (coated with the immobilised trivalent cations) slows the rotation of the bound Fl-AMP and leads to an increase in the fluorescence polarisation ratio of parallel to perpendicular light. Inhibition of the PDE reduces/inhibits this signal increase.
The enzyme level is set by experimentation so that reaction is linear throughout the incubation. Fluorescein adenosine 3′,5′-cyclic phosphate (from Molecular Devices Corporation, Molecular Devices code: R7091) is added to give about 40 nM final concentration (final assay volume usually ca. 20-40 ul, suitably ca. 20 ul). Plates are mixed on an orbital shaker for 10 seconds and incubated at ambient temperature for 40 minutes. IMAP binding reagent (as described above, from Molecular Devices Corporation, Molecular Devices code: R7207) is added (60 ul of a 1 in 400 dilution in binding buffer of the kit stock solution) to terminate the assay. Plates are allowed to stand at ambient temperature for 1 hour. The Fluorescence Polarisation (FP) ratio of parallel to perpendicular light is measured using an Analyst™ plate reader (from Molecular Devices Corporation). […] Curves are analysed using ActivityBase and XLfit (ID Business Solutions Limited, 2 Ocean Court, Surrey Research Park, Guildford, Surrey GU2 7QB, United Kingdom). Results are expressed as plC50 values.

T1 sequence (Q07343 1-564 isoform Q07343-2): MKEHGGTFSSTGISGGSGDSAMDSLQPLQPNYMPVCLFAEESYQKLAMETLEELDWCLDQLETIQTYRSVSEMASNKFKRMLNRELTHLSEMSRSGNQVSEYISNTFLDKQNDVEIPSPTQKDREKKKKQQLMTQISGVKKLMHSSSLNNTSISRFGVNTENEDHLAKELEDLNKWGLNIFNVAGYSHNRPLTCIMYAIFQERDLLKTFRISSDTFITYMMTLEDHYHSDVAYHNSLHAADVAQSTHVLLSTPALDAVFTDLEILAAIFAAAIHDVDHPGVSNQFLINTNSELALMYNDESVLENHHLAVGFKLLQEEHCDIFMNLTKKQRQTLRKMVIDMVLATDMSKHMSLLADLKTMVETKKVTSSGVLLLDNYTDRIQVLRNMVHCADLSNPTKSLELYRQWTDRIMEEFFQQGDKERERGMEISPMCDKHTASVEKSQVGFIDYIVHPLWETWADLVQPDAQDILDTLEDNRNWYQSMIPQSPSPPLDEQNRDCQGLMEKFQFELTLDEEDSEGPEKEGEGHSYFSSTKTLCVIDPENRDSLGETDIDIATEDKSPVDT

IC50 | SMILES
0.126 to 1 nM | CCc1nc2c(cnn2CC)c(NC2CCOCC2)c1CNC(=O)Nc1ccccc1 [Example 203, N-{[1,6-diethyl-4-(tetrahydro-2H-pyran-4-ylamino)-1H-pyrazolo[3,4-b]pyridin-5-yl]methyl}-N′-phenylurea]
0.01 to 0.1 nM | CCc1nc2c(cnn2CC)c(NC2CCN(C(N)=O)CC2)c1CNC(=O)c1ccc(N2CCCCC2)cc1 [Example 204, 4-({1,6-diethyl-5-[({[4-(1-piperidinyl)phenyl]carbonyl}amino)methyl]-1H-pyrazolo[3,4-b]pyridin-4-yl}amino)-1-piperidinecarboxamide]
0.01 to 0.1 nM | CCc1nc2c(cnn2CC)c(NC2CCN(C(N)=O)CC2)c1CNC(=O)c1cccc2c1OCC2 [Example 205, 4-[(5-{[(2,3-dihydro-1-benzofuran-7-ylcarbonyl)amino]methyl}-1,6-diethyl-1H-pyrazolo[3,4-b]pyridin-4-yl)amino]-1-piperidinecarboxamide]
0.126 to 1 nM | CCc1nc2c(cnn2CC)c(NC2CCN(C(N)=O)CC2)c1CNC(=O)c1ccc2c(c1)CCC2 [Example 206, 4-[(5-{[(2,3-dihydro-1H-inden-5-ylcarbonyl)amino]methyl}-1,6-diethyl-1H-pyrazolo[3,4-b]pyridin-4-yl)amino]-1-piperidinecarboxamide]
0.01 to 0.1 nM | CCc1nc2c(cnn2CC)c(NC2CCN(C(N)=O)CC2)c1CNC(=O)c1ccc(N2CCOCC2)cc1 [Example 207, 4-({1,6-diethyl-5-[({[4-(4-morpholinyl)phenyl]carbonyl}amino)methyl]-1H-pyrazolo[3,4-b]pyridin-4-yl}amino)-1-piperidinecarboxamide]
0.01 to 0.1 nM | CCc1nc2c(cnn2CC)c(NC2CCN(C(N)=O)CC2)c1CNC(=O)c1ccc(C(C)C)cc1 [Example 208, 4-({1,6-diethyl-5-[({[4-(1-methylethyl)phenyl]carbonyl}amino)methyl]-1H-pyrazolo[3,4-b]pyridin-4-yl}amino)-1-piperidinecarboxamide]
0.01 to 0.1 nM | CCc1nc2c(cnn2CC)c(NC2CCN(C(N)=O)CC2)c1CNC(=O)c1ccc(N2CCCC2=O)cc1 [Example 209, 4-({1,6-diethyl-5-[({[4-(2-oxo-1-pyrrolidinyl)phenyl]carbonyl}amino)methyl]-1H-pyrazolo[3,4-b]pyridin-4-yl}amino)-1-piperidinecarboxamide]
0.01 to 0.1 nM | CCc1nc2c(cnn2CC)c(NC2CCN(C(N)=O)CC2)c1CNC(=O)c1ccc(C2CCCC2)cc1 [Example 210, 4-{[5-({[(4-cyclopentylphenyl)carbonyl]amino}methyl)-1,6-diethyl-1H-pyrazolo[3,4-b]pyridin-4-yl]amino}-1-piperidinecarboxamide]
0.01 to 0.1 nM | CCc1nc2c(cnn2CC)c(NC2CCN(C(N)=O)CC2)c1CNC(=O)c1ccccc1O [Example 211, 4-{[1,6-diethyl-5-({[(2-hydroxyphenyl)carbonyl]amino}methyl)-1H-pyrazolo[3,4-b]pyridin-4-yl]amino}-1-piperidinecarboxamide]
0.01 to 0.1 nM | CCc1nc2c(cnn2CC)c(NC2CCN(C(N)=O)CC2)c1CN1Cc2ccccc2C1=O [Example 212, [4-({1,6-diethyl-5-[(1-oxo-1,3-dihydro-2H-isoindol-2-yl)methyl]-1H-pyrazolo[3,4-b]pyridin-4-yl}amino)-1-piperidinecarboxamide], Formate]
0.126 to 1 nM | CCn1ncc2c(NC3CCOCC3)c(CNC(=O)c3ccc(-n4cccc4)nc3)c(C)nc21 [Example 214, N-{[1-ethyl-6-methyl-4-(tetrahydro-2H-pyran-4-ylamino)-1H-pyrazolo[3,4-b]pyridin-5-yl]methyl}-6-(1H-pyrrol-1-yl)-3-pyridinecarboxamide]
0.126 to 1 nM | CCn1ncc2c(NC3CCOCC3)c(CNC(=O)c3cccc(N4CCCC4=O)c3)c(C)nc21 [Example 216, N-{[1-ethyl-6-methyl-4-(tetrahydro-2H-pyran-4-ylamino)-1H-pyrazolo[3,4-b]pyridin-5-yl]methyl}-3-(2-oxo-1-pyrrolidinyl)benzamide]
